Results published in patent publication US20100016275A1, “NOVEL COMPOUND 395” (priority 2008, published 2010).
pIC50: −log10 of the molar value. Values joined by “and” are separate entries in the source; they are usually repeats but may differ in a detail not shown here. Identical values can stand only once.

Target: T1, human CXCR2 receptor (Homo sapiens, UniProt P25025)
T1 construct: expressed in transfected cells; host or cells: HEK293, stably transfected geneticin-resistant clones, vector RcCMV; membranes purified by sucrose gradient
T1 sequence (P25025 1-360): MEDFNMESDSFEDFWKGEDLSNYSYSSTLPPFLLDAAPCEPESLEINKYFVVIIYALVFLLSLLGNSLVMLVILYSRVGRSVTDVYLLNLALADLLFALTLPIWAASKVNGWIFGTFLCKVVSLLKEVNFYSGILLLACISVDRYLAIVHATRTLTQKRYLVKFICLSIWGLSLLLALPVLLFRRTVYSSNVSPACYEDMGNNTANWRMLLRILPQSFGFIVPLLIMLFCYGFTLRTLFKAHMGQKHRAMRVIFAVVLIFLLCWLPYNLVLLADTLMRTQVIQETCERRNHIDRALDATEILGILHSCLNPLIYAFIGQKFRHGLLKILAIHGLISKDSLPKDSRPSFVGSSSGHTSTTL
Assay: Potency (pIC50) ligand binding assay, inhibition of [125I]IL-8 binding
Details: for pIC50: inhibition of specific [125I]IL-8 (0.06 nM) binding, membranes of HEK293 cells transfected with human recombinant CXCR2
Description: Potency (pIC50)—Ligand Binding Assay
The potency of antagonists at the human CXCR2 receptor was determined in vitro by quantifying their ability to inhibit specific binding of the CXCR2 radioligand, [^125I]interleukin-8 (IL-8), from membranes of HEK293 cells transfected with the human recombinant CXCR2 receptor.
Commercially sourced materials were obtained as follows: U-bottomed 96-well plates (3799) and 225 cm^2 vented cap culture flasks (3001) from Costar, Corning, Kent, UK. Multiscreen filter plates (0.45 μm; MAHV N45 50), vacuum manifold and pump (XF54 230 50) from Millipore, Watford, UK. N-[2-hydroxyethyl]piperazine-N′-[2ethanesulphonic acid] (HEPES; H-3375), ethylene diamine-tetraacetic acid (EDTA; E1644), magnesium chloride (M-9272), gelatin (G9382), dithiothreitol (DTT; D06052), sodium chloride (S3160/63), sodium hydroxide (B6506), bacitracin (B0125), inactivated foetal calf serum (FCS; CR0848) and DMSO Fluka Chemika (41648) from Sigma, Poole, UK. MicroScint-O (6013611) Packard BioScience, Pangboume, UK. Complete protease inhibitor cocktail tablets (1836145) from Boehringer s Mannheim, GmbH, Germany. Human recombinant [^125I]IL-8 74 TBq/mmol, 0.712 MBq/ml (IM249) from Amersham, Horsham UK. All other tissue culture reagents were purchased from Invitrogen, Paisley, Scotland, UK. All other chemical reagents were analytical grade from Fisher Scientific, Loughborough, UK
HEPES-buffered salt solution pH 7.4 containing HEPES (10 mM), potassium chloride (2.7 mM), sodium chloride (137 mM), potassium hydrogen phosphate (0.4 mM), calcium chloride (1.8 mM), magnesium chloride (1 mM), gelatin (0.1% (w/v)) and bacitracin (100 μg/ml).
HEPES-buffered Tyrode's solution pH 7.4 containing HEPES (10 mM), potassium chloride (2.7 mM), sodium chloride (137 mM), potassium hydrogen phosphate (0.4 mM), glucose (11 mM).
Hypotonic buffer: 3:1 mix of water: HEPES-buffered Tyrode's solution.
HEK293 cells were transfected with human CXCR2 (EMBL L19593) cDNA, previously cloned into the eukaryotic expression vector RcCMV. Cloned cell-lines were generated from stably-transfected geneticin-resistant populations. Cells were routinely grown to approximately 80% confluence in DMEM medium containing 10% (v/v) foetal calf serum and glutamine (2 mM) in a humidified incubator at 37° C., 5% CO2. Cells were harvested from flasks using Accutase™ at 37° C. for 3 to 5 minutes and resuspended on ice in hypotonic buffer at a density of 2×10^7 cells/mL. Membranes were prepared on ice by homogenisaton using a polytron tissue homogenizer set at 22000 rpm. The membrane fraction was purified by sucrose gradient centrifugation where homogenised cells were layered onto 41% (w/v) sucrose solution then centrifuged at 140000 g for 1 hour at 4° C. The membrane fraction was harvested at the interface, diluted 4-fold with HEPES-buffered Tyrode's solution and centrifuged at 100000 g for 20 minutes at 4° C. The membrane pellet was re-suspended at 1×10^8 cell equivalents/mL in HEPES-buffered Tyrode's solution and subsequently stored in aliquots at −80° C. All buffers used for membrane preparation and storage were made in the presence of 1 mM DTT and Complete Protease Inhibitor™ cocktail tablets, made up to manufacturers instructions.
Assays were performed in HEPES-buffered salt solution in 96-well plates. [^125I]IL-8 was used at a final concentration of 0.06 nM, pre-diluted from a 9.6 nM stock. The final DMSO concentration in the assay was 1% (v/v). Test compounds were prepared by serial dilution in DMSO followed by a ten-fold dilution into HEPES-buffered salt solution to give a working solution containing compound and 10% DMSO. The control for total binding (B0) of [^125I]IL-8 was determined in the absence of compound. The control for non-specific binding (NSB) was determined by measuring [^125I]IL-8 binding in the presence of (1R)-5-[[(3 -chloro-2-fluorophenyl)methyl]thio]-7-[[2-hydroxy-1-methylethyl]amino]thiazolo[4,5-d]pyrimidin-2(3H)-one dihydrate, sodium salt at 1 μM final concentration. […]

Compound | pIC50 | fold less potent than the compound of Formula (1) (potency ratio from pIC50) | fold less potent than the compounds of Examples 39-42 (potency ratio from pIC50)
C[C@@H](Nc1cc(NS(=O)(=O)N2CCC2)nc(SCc2cccc(F)c2F)n1)[C@@H](O)CO [Example 1, N-(2-[(2,3-difluorobenzyl)thio]-6-{[(1R,2R)-2,3-dihydroxy-1-methylpropyl]amino}pyrimidin-4-yl)azetidine-1-sulfonamide] | 8.20 and > 8.00 |  | 
Cc1ccc(CSc2nc(N[C@H](C)CO)cc(NS(=O)(=O)N3CCC3)n2)c(F)c1C [Example 42] | 8.10 |  | 
CS(=O)(=O)Nc1cc(NC(CO)CO)nc(SCc2ccccc2)n1 [Example 21] | 5.60 | 398 fold | 316-1000 fold

Other lines, results leading:

pIC50 | fold less potent than the compound of Formula (1) (potency ratio from pIC50) | fold less potent than the compounds of Examples 39-42 (potency ratio from pIC50) | Compound
8.40 |  |  | Cc1cccc(CSc2nc(N[C@H](C)CO)cc(NS(C)(=O)=O)n2)c1F [Example 39]
8.60 |  |  | Cc1cccc(CSc2nc(N[C@H](C)CO)cc(NS(=O)(=O)N3CCC3)n2)c1F [Example 40]
8.50 |  |  | Cc1ccc(CSc2nc(N[C@H](C)CO)cc(NS(=O)(=O)N3CCC3)n2)c(F)c1C [Example 41]
